Test results as given in ChEMBL document CHEMBL4138198, “Synthesis of new 1-benzyl tetrahydropyridinylidene ammonium salts and their antimicrobial and anticellular activities” (Eur J Med Chem, 2018).
pIC50: −log10 of the molar value. Converted amounts (≈) assume the structure as drawn.

Key:
[1] = test system: L6; experiment: Cytotoxicity against rat L6 cells after 70 hrs by Alamar blue staining-based fluorometric analysis; assay type: cell-based; settings: L6, 70 h
[2] = test system: Candida parapsilosis; experiment: Antimicrobial activity against Candida parapsilosis ATCC 90018 assessed as zone of inhibition at 50 ug per disc after 48 hrs by disc diffusion assay; assay type: functional; settings: Lodderomyces parapsilosis, ATCC 90018, 48 h; read-out: DIZ
[3] = Selectivity index, ratio of IC50 for rat L6 cells to IC50 for erythrocytic stage of Plasmodium falciparum NF54; assay type: toxicity; settings: read-out: Ratio IC50
[4] = test system: Klebsiella oxytoca; experiment: Antimicrobial activity against Klebsiella oxytoca ATCC 8724 assessed as zone of inhibition at 50 ug per disc after 24 hrs by disc diffusion assay; assay type: functional; settings: ATCC 8724, 24 h, read-out: DIZ
[5] = test system: Staphylococcus epidermidis; experiment: Antimicrobial activity against Staphylococcus epidermidis ATCC 12228 assessed as zone of inhibition at 50 ug per disc after 24 hrs by disc diffusion assay; assay type: functional; settings: ATCC 12228, 24 h, read-out: DIZ
[6] = test system: Staphylococcus aureus; experiment: Antimicrobial activity against Staphylococcus aureus subsp. aureus ATCC 25923 assessed as zone of inhibition at 50 ug per disc after 24 hrs by disc diffusion assay; assay type: functional; settings: ATCC 25923, 24 h, read-out: DIZ
[7] = test system: Pseudomonas aeruginosa; experiment: Antimicrobial activity against Pseudomonas aeruginosa ATCC 27853 assessed as zone of inhibition at 50 ug per disc after 24 hrs by disc diffusion assay; assay type: functional; settings: ATCC 27853, 24 h, read-out: DIZ
[8] = Selectivity index, ratio of IC50 for rat L6 cells to IC50 for Trypanosoma brucei rhodesiense STIB900 bloodstream forms; assay type: toxicity; settings: read-out: Ratio IC50
[9] = test system: Escherichia coli; experiment: Antimicrobial activity against Escherichia coli ATCC 25922 assessed as zone of inhibition at 50 ug per disc after 24 hrs by disc diffusion assay; assay type: functional; settings: ATCC 25922, 24 h, read-out: DIZ
[10] = test system: Mycolicibacterium smegmatis; experiment: Antimycobacterial activity against Mycobacterium smegmatis ATCC 14468 after 72 hrs by MTT dye-based microbroth dilution assay; assay type: functional; settings: ATCC 14468, 72 h
[11] = test system: Plasmodium berghei; experiment: Antiplasmodial activity against GFP expressing Plasmodium berghei ANKA infected in NMRI mouse assessed as mouse mean survival days at 50 mg/kg, ip administered 4 hrs, 24 hrs, 48 hrs, 72 hrs post infection for 4 days and measured 72 hrs post infection by FACS analysis (reference value: 4 days); assay type: functional
[12] = test system: Plasmodium falciparum; experiment: Antimalarial activity against erythrocytic stage of Plasmodium falciparum NF54 assessed as inhibition of [3H]-hypoxanthine incorporation after 48 hrs by liquid scintillation counting analysis; assay type: functional, organism-based
[13] = test system: Plasmodium berghei; experiment: Antiplasmodial activity against GFP expressing Plasmodium berghei ANKA infected in NMRI mouse assessed as reduction in parasitemia at 50 mg/kg, ip administered 4 hrs, 24 hrs, 48 hrs, 72 hrs post infection for 4 days and measured 72 hrs post infection by FACS analysis relative to control; assay type: functional; set-up: scale not given: the % may be the effect or the level left
[14] = test system: Trypanosoma brucei rhodesiense; experiment: Antitrypanosomal activity against Trypanosoma brucei rhodesiense STIB900 bloodstream forms after 70 hrs by Alamar blue staining-based fluorometric analysis; assay type: functional, organism-based; settings: STIB900, 70 h
[15] = test system: Candida tropicalis; experiment: Antimicrobial activity against Candida tropicalis ATCC 13803 assessed as zone of inhibition at 50 ug per disc after 48 hrs by disc diffusion assay; assay type: functional; settings: ATCC 13803, 48 h, read-out: DIZ
[16] = test system: Bacillus subtilis; experiment: Antimicrobial activity against Bacillus subtilis subsp. subtilis ATCC 6051 assessed as zone of inhibition at 50 ug per disc after 24 hrs by disc diffusion assay; assay type: functional; settings: subsp. subtilis ATCC 6051, 24 h, read-out: DIZ
[17] = test system: Candida albicans; experiment: Antimicrobial activity against Candida albicans ATCC 10231 assessed as zone of inhibition at 50 ug per disc after 48 hrs by disc diffusion assay; assay type: functional; settings: ATCC 10231, 48 h, read-out: DIZ
[18] = test system: Plasmodium berghei; experiment: Antiplasmodial activity against GFP expressing Plasmodium berghei ANKA infected in NMRI mouse assessed as reduction in parasitemia at 10 mg/kg, ip administered 4 hrs, 24 hrs, 48 hrs, 72 hrs post infection for 4 days and measured 72 hrs post infection by FACS analysis relative to control; assay type: functional; set-up: scale not given: the % may be the effect or the level left
[19] = test system: Plasmodium berghei; experiment: Antiplasmodial activity against GFP expressing Plasmodium berghei ANKA infected in NMRI mouse assessed as mouse mean survival days at 10 mg/kg, ip administered 4 hrs, 24 hrs, 48 hrs, 72 hrs post infection for 4 days and measured 72 hrs post infection by FACS analysis (reference value: 4 days); assay type: functional
[20] = test system: MRC5; experiment: Cytotoxicity against human MRC5 cells after 72 hrs by XTT assay; assay type: cell-based; settings: MRC5, 72 h
[21] = Growth inhibition of human MRC5 cells assessed as metabolic active cells level at 147.7 uM after 72 hrs by XTT assay relative to control; assay type: ADME, cell-based; settings: read-out: Activity
[22] = Growth inhibition of human MRC5 cells at 134 uM after 72 hrs by XTT assay relative to control; assay type: cell-based; settings: read-out: GI

CC1(C)CC(=[N+]2CCCC2)C=CN1Cc1ccc([N+](=O)[O-])cc1.[Cl-]
pIC50 ([1]; read-out: IC50): < 3.54
zone of inhibition at 50 µg/disc [2]: 0 mm
selectivity ratio [3]: > 2860
zone of inhibition at 50 µg/disc [4]: 7 mm
zone of inhibition at 50 µg/disc [5]: 7 mm
zone of inhibition at 50 µg/disc [6]: 0 mm
zone of inhibition at 50 µg/disc [7]: 0 mm
selectivity ratio [8]: > 3.58
zone of inhibition at 50 µg/disc [9]: 0 mm
MIC [10]: ≥ 128 µg/mL
MSD [11]: 7 days
pIC50 [12]: 7.00
Activity [13]: 78.4%
pIC50 [14]: 4.10
zone of inhibition at 50 µg/disc [15]: 13 mm
zone of inhibition at 50 µg/disc [16]: 0 mm
zone of inhibition at 50 µg/disc [17]: 8 mm

CC1(C)CC(=[N+]2CCCC2)C=CN1Cc1ccc2c(c1)OCO2
pIC50 ([1]; read-out: IC50): 4.68
selectivity ratio [3]: 451
selectivity ratio [8]: 1.11
pIC50 [12]: 7.34
pIC50 [14]: 4.73

CC1(C)CC(=[N+]2CCCC2)C=CN1Cc1ccc(F)cc1.[Br-]
pIC50 ([1]; read-out: IC50): < 3.56
selectivity ratio [3]: > 2480
selectivity ratio [8]: > 6.94
Activity [18]: 31.6%
pIC50 [12]: 6.96
pIC50 [14]: 4.41
MSD [19]: 4 days

CC1(C)CC(=[N+]2CCCC2)C=CN1Cc1ccccc1C(F)(F)F
pIC50 ([1]; read-out: IC50): 5.16
selectivity ratio [3]: 38.6
selectivity ratio [8]: 0.71
pIC50 [12]: 6.74
pIC50 [14]: 5.01

COc1ccc(CN2C=CC(=[N+]3CCCC3)CC2(C)C)cc1
pIC50 ([1]; read-out: IC50): 3.77
selectivity ratio [3]: 1530
selectivity ratio [8]: 7.56
pIC50 [12]: 6.96
pIC50 [14]: 4.65

CC1(C)CC(=[N+]2CCCC2)C=CN1Cc1ccc(Cl)cc1.[Cl-]
pIC50 ([1]; read-out: IC50): 4.70
zone of inhibition at 50 µg/disc [2]: 0 mm
selectivity ratio [3]: 743
zone of inhibition at 50 µg/disc [4]: 7 mm
zone of inhibition at 50 µg/disc [5]: 22 mm
zone of inhibition at 50 µg/disc [6]: 14 mm
zone of inhibition at 50 µg/disc [7]: 0 mm
selectivity ratio [8]: 1.02
zone of inhibition at 50 µg/disc [9]: 0 mm
pIC50 [20]: 3.92
MIC [10]: 32 µg/mL
Activity [18]: 45.8%
pIC50 [12]: 7.57
pIC50 [14]: 4.71
zone of inhibition at 50 µg/disc [15]: 21 mm
MSD [19]: 9 days
viability at 72 h, 147.7 µM [21]: 0 to 10%
zone of inhibition at 50 µg/disc [16]: 11 mm
zone of inhibition at 50 µg/disc [17]: 20 mm

CC1(C)CC(=[N+]2CCCC2)C=CN1Cc1ccc(Cl)c(Cl)c1.[Cl-]
pIC50 ([1]; read-out: IC50): 3.95
selectivity ratio [3]: 5350
selectivity ratio [8]: 9.03
inhibition at 72 h, 134 µM [22]: 27 to 56%
Activity [18]: 39.9%
pIC50 [12]: 7.68
pIC50 [14]: 4.91
MSD [19]: 4 days

CCN(CC)CCCC(C)Nc1ccnc2cc(Cl)ccc12 (stereo not drawn) [CHLOROQUINE]
Activity [18]: 99.6%
MSD [19]: 20 days

OC(Cn1cncn1)(Cn1cncn1)c1ccc(F)cc1F [FLUCONAZOLE]
zone of inhibition at 50 µg/disc [2]: 28 mm
zone of inhibition at 50 µg/disc [15]: 36 mm
zone of inhibition at 50 µg/disc [17]: 24 mm

NNC(=O)c1ccncc1 [ISONIAZID]
MIC [10]: 4 µg/mL (≈ 29.2 µM)

NC[C@H]1O[C@H](O[C@H]2[C@H](O)[C@@H](O[C@H]3O[C@H](CO)[C@@H](O)[C@H](N)[C@H]3O)[C@H](N)C[C@@H]2N)[C@H](O)[C@@H](O)[C@@H]1O [KANAMYCIN]
zone of inhibition at 50 µg/disc [6]: 17 mm
zone of inhibition at 50 µg/disc [9]: 14 mm
zone of inhibition at 50 µg/disc [16]: 13 mm

CC1(C)S[C@@H]2[C@H](NC(=O)Cc3ccccc3)C(=O)N2[C@H]1C(=O)O [PENICILLIN G]
zone of inhibition at 50 µg/disc [4]: 8 mm

COc1cc([C@@H]2c3cc4c(cc3[C@H](O)[C@H]3COC(=O)[C@H]23)OCO4)cc(OC)c1OC [PODOFILOX]
pIC50 [1]: 7.92

CN(C)[C@@H]1C(O)=C(C(N)=O)C(=O)[C@@]2(O)C(O)=C3C(=O)c4c(O)cccc4[C@@](C)(O)[C@H]3C[C@@H]12 [TETRACYCLINE]
zone of inhibition at 50 µg/disc [5]: 13 mm
